Consider eight compounds from patent US20240018161A1, “MODULATORS OF CYSTIC FIBROSIS TRANSMEMBRANE CONDUCTANCE REGULATOR” (VERTEX PHARMACEUTICALS INCORPORATED, priority 2020, published 2024).

As usually defined, the EC50 is the concentration needed to bring the measured effect to its halfway point.

Where only a bound is given, the exact number is not on record here.

The conditions of series [1]: from 3-[[4-[(1-benzylpiperazin-2-yl)methoxy]-6-(2,6-dimethylphenyl)pyrimidin-2-yl]sulfamoyl]benzoic acid (Dihydrochloride salt); amide bond; 14-membered ring; HATU/DIEA; DMF; 12.7 mM; 25.0 °C; 3 steps.
For series [2], the target named is T1, CFTR-mediated short-circuit current in F508del/MF-HBE cells (Homo sapiens, UniProt P13569, DEL508-508).
T1 construct: human bronchial epithelial (HBE) cells derived from CF subjects; endogenous in cells; host or cells: primary human bronchial epithelial cells from CF subjects (F508del/MF-HBE)
The series is described as follows: HBE assay: Ussing chamber assay of CFTR-mediated short-circuit currents. In kind it is cell-based. The settings on record: for EC50: read-out: HBE EC50; for Emax: read-out: HBE Max Activity (%). How it is done: (§1) 1. Ussing Chamber Assay of CFTR-Mediated Short-Circuit Currents
(§2) Ussing chamber experiments were performed using human bronchial epithelial (HBE) cells derived from CF subjects heterozygous for F508del and a minimal function CFTR mutation (F508del/MF-HBE) and cultured as previously described (Neuberger T, Burton B, Clark H, Van Goor F Methods Mol Biol 2011:741:39-54). After four days the apical media was removed, and the cells were grown at an air liquid interface for >14 days prior to use.
(§3) To isolate the CFTR-mediated short-circuit (ISC) current, F508del/MF-HBE grown on Costar® Snapwell™ cell culture inserts were mounted in an Ussing chamber and the transepithelial ISC was measured under voltage-clamp recording conditions (Vhold=0 mV) at 37° C. The basolateral solution contained (in mM) 145 NaCl, 0.83 K2HPO4, 3.3 KH2PO4, 1.2 MgCl2, 1.2 CaCl2), 10 Glucose, 10 HEPES (pH adjusted to 7.4 with NaOH) and the apical solution contained (in mM) 145 NaGluconate, 1.2 MgCl2, 1.2 CaCl2, 10 glucose, 10 HEPES (pH adjusted to 7.4 with NaOH) and 30 μM amiloride to block the epithelial sodium channel. Forskolin (20 μM) was added to the apical surface to activate CFTR, followed by apical addition of a CFTR inhibitor cocktail consisting of BPO, GlyH-101, and CFTR inhibitor 172 (each at 20 μM final assay concentration) to specifically isolate CFTR currents. The CFTR-mediated ISC (μA/cm^2) for each condition was determined from the peak forskolin response to the steady-state current following inhibition.
(§4) 2. Identification of Corrector Compounds
(§5) The activity of the CFTR corrector compounds on the CFTR-mediated ISC was determined in Ussing chamber studies as described above. The F508del/MF-HBE cell cultures were either incubated with the corrector compounds at a range of concentrations in combination with 1 μM Ivacaftor or were incubated with the corrector compounds at a single fixed concentration of 10 μM in combination with 1 μM Ivacaftor for 18-24 hours at 37° C. and in the presence of 20% human serum. The concentration of corrector compounds with 1 μM Ivacaftor during the 18-24 hours incubations was kept constant throughout the Ussing chamber measurement of the CFTR-mediated ISC to ensure compounds were present throughout the entire experiment.
as §3, with “CaCl2,” for “CaCl2),”

Series [3] concerns the target T1, CFTR-mediated short-circuit current in F508del/MF-HBE cells. Description: HBE2 assay: Ussing chamber assay of CFTR-mediated short-circuit currents. In kind it is cell-based. How it is done: as §1, §2
as §3, with “CaCl2,” for “CaCl2),”
as §4
as §5, with “44 nM (6R,12R)-17-amino-12-methyl-6,15-bis(trifluoromethyl)-13,19-dioxa-3,4,18-triazatricyclo[12.3.1.12,5]nonadeca-1(18),2,4,14,16-pentaen-6-ol” for “1 μM Ivacaftor”, “1 and 3” for “10”, “[…]” for “20%”

The mark [4] stands for this setting: F508del/MF-HBE, 18-24 hours with 1 μM Ivacaftor, 20% human serum, compared to known Vertex corrector with Tezacaftor and Ivacaftor.
The mark [5] stands for this setting: F508del/MF-HBE, 18-24 hours with 1 μM Ivacaftor, 20% human serum.

T1 sequence (P13569 with tags, fused parts or gaps DEL508-508): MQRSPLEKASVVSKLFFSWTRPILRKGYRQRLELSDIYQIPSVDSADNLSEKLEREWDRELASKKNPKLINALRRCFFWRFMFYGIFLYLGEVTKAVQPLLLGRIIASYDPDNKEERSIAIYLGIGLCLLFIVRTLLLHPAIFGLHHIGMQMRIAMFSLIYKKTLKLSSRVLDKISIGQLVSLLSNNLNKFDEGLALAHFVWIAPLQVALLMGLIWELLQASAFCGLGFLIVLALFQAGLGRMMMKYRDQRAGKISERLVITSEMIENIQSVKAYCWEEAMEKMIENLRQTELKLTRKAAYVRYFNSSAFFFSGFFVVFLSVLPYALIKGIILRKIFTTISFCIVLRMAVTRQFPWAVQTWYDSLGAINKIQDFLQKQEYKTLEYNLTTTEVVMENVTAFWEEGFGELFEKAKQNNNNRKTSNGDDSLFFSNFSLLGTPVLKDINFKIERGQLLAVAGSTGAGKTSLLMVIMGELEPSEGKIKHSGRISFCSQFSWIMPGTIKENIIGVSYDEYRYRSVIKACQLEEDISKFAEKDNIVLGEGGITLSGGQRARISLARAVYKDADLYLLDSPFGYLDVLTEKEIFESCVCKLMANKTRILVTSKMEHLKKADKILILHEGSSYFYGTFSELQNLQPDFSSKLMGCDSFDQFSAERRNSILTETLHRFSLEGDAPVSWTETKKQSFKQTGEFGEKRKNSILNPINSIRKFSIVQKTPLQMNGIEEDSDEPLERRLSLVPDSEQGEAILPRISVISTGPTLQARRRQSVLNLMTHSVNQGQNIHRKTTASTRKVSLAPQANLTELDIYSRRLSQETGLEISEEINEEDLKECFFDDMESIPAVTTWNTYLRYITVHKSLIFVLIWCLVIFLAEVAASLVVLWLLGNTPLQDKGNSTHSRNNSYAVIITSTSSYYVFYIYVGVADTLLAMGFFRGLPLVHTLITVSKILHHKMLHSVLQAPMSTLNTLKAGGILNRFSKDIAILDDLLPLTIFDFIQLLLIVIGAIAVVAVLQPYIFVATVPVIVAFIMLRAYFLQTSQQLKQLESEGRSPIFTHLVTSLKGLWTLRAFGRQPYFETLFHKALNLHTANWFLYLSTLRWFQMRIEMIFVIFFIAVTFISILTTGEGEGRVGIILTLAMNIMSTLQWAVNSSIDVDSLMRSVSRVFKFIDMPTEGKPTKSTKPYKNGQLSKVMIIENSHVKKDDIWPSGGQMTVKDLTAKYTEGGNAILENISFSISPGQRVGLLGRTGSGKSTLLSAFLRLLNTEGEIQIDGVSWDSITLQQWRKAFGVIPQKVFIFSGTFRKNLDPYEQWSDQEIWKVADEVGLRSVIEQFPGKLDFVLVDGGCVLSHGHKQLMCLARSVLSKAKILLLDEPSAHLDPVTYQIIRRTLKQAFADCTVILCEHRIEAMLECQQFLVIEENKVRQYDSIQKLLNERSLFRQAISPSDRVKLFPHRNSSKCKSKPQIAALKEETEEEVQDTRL

As for `Cc1cccc(C)c1-c1cc2nc(n1)NS(=O)(=O)c1cccc(c1)C(=O)N1CCNC(CO2)C1` (stereo not drawn), the ring closure, crude yield in series [1] was found to be 22%.

As for `Cc1cccc(C)c1-c1cc2nc(n1)NS(=O)(=O)c1cccc(c1)C(=O)N1[C@@H](c3cccc(N(C)C4CC5(CC5)C4)n3)CC[C@@H](C(C)C)[C@H]1CO2` (single isomer, unassigned) [Compound 391, 13-(2,6-dimethylphenyl)-7-isopropyl-4-[6-[methyl(spiro[2.3]hexan-5-yl)amino]-2-pyridyl]-17,17-dioxo-10-oxa-17λ^6-thia-3,14,16,23-tetrazatetracyclo[16.3.1.111,15.03,8]tricosa-1(21),11,13,15(23),18(22),19-hexaen-2-one], the “HBE Activity at 10 μM (%)” value in series [2] is given as “++ (++ is 30-60%)”. Same read-out and setting: the value for `Cc1cccc(C)c1-c1cc2nc(n1)NS(=O)(=O)c1cccc(c1)C(=O)N1[C@@H](c3ncc(OC(C)C)cn3)CC[C@@H](CC(C)C)[C@H]1CO2` (single isomer, unassigned) [Compound 392, 13-(2,6-dimethylphenyl)-7-isobutyl-4-(5-isopropoxypyrimidin-2-yl)-17,17-dioxo-10-oxa-17λ^6-thia-3,14,16,23-tetrazatetracyclo[16.3.1.111,15.03,8]tricosa-1(21),11,13,15(23),18(22),19-hexaen-2-one] was “++ (++ is 30-60%)”.

In the case of `Cc1cccc(C)c1-c1cc2nc(n1)NS(=O)(=O)c1cccc(c1)C(=O)N1[C@@H](c3ncc(OC(C)C)cn3)CC[C@@H](CC(C)C)[C@H]1CO2` (single isomer, unassigned) [Compound 393, 13-(2,6-dimethylphenyl)-7-isobutyl-4-(5-isopropoxypyrimidin-2-yl)-17,17-dioxo-10-oxa-17λ^6-thia-3,14,16,23-tetrazatetracyclo[16.3.1.111,15.03,8]tricosa-1(21),11,13,15(23),18(22),19-hexaen-2-one], the “HBE Activity at 10 μM (%)” value in series [2] is “+++ (+++ is >60%)”. In addition, in series [3], the activation at 3 µM was above 60%. For the compound `Cc1cccc(C)c1-c1cc2nc(n1)NS(=O)(=O)c1cccc(c1)C(=O)N1[C@H](CCC[C@@H]1c1ccccn1)CO2` [Compound 327], the “HBE Max activity (%)” value in series [2] (setting [4]) is “++ (++ is 30-60%)”. Besides, the EC50 in series [2] (setting [5]) lay within 3 to 30 µM. For the compound `Cc1cccc(C)c1-c1cc2nc(n1)NS(=O)(=O)c1cccc(c1)C(=O)N1[C@H](CCC[C@@H]1c1ccccn1)CO2` [Compound 328], the Emax in series [2] (setting [4]) fell in the range of 30 to 60%. In addition, the EC50 in series [2] (setting [5]) is 1 to 3 µM. The like results for `Cc1cccc(C)c1-c1cc2nc(n1)NS(=O)(=O)c1cccc(c1)C(=O)N1C(c3ncc(OC(C)C)cn3)CCC(C(C)C)C1CO2` (stereo not drawn) [Compound 371] were, in that order, above 60% and below 1 µM.

As for `Cc1cccc(C)c1-c1cc2nc(n1)NS(=O)(=O)c1cccc(c1)C(=O)N1C(c3ncc(OC(C)C)cn3)CCC(CC(C)C)C1CO2` (stereo not drawn) [Compound 414], the “HBE Activity at 10 μM (%)” value in series [2] is reported as “+++ (+++ is >60%)”.
